US11510902B2, “Method for preventing or treating non-alcoholic fatty liver disease by antrodins” (Simpson Biotech Co., Ltd., priority 2019, dated 2022)

How the values were obtained:
Hep G2 cells [1] = test: Free fatty acids (FFA)-induced lipid accumulation and Oil Red determination; type: cell-based, Human; details: Oil Red; for attenuated lipid accumulation in the cells: vs control group; for cellular lipid accumulation as compared with the control group: FIG. 2
Description: (§1) Human hepatoma cell line Hep G2 was cultured in Dulbecco's modified Eagle's medium high glucose (DMEM-HG) containing 10% fetal bovine serum, 100 U/ml penicillin and […] streptomycin at 37° C. under 5% CO2 in an incubator.
1×10^5 Hep G2 cells were seeded in a 96-well plate and incubated with serum-free cellular medium containing 1% BSA for 24 hrs. To induce lipid accumulation, the above cells were seeded in a mixture of 0.33 mM palmitic acid and 0.66 mM oleic acid for 24 hrs, which were dissolved in serum-free medium with or without Antrodin. After lipid accumulation and Antrodin treatment, cells were washed with PBS and then fixed by 4% paraformaldehyde for 15 mins at room temperature. The fixed cells were washed with PBS for 5 mins, and then rinsed with 60% isopropanol twice; followed by incubation with 1 ml Oil Red kit for 10 mins. For quantitative analysis of cellular lipids, dye in the cellular lipids were extracted with 0.5 ml of isopropanol, and then measured at 490 nm.

Hep G2 cells [2] = test: Cell viability test (alamar blue); type: cell-based, Human; details: concentration less than 100 μg/ml, 72 hrs
Description: as §1
Hepasim® was a mixture from Antrodia cinnamomea mycelia, which was prepared from water or organic solvent extract of Antrodia cinnamomea mycelia. The extract of Antrodia cinnamomea mycelia comprised Antrodin B-E. 5×10^3 Hep G2 cells were seeded in a 96-well plate for 24 hrs, and then incubated with different concentrations of Hepasim®, Antrodin B, Antrodin C and Antrodin D for 72 hrs. After treatment, cells were incubated with alamar blue (10%, w/v) for 3 hrs, and then was read at […]. Cell viability was calculated by [(OD570−OD600)test/(OD570−OD600)control]×100.

[3] = system: C57BL/6J (B6) mice on high fat diet; test: High fat diet mice, treating process (20 weeks, dosing 11th to 20th week); type: in vivo; design: Malondiadehyde in liver: unit not given here; details: for body weight: 11th to 20th week, high fat diet 20 weeks; for reduction of body weight increasing rate as compared with the high fat diet group: at the end of 20 weeks; for ALT / AST / TC / TG / attenuated the increased ALT as compared with the high fat diet group / attenuated the increased AST as compared with the high fat diet group / attenuated the increased TC as compared with the high fat diet group / attenuated the increased TG as compared with the high fat diet group: serum; for Plasma insulin increasing rate / body weight increasing rate: relative to control group; for lipid droplets in the liver, hematoxylin-eosin staining of liver sections: FIG. 5; for MDA level increasing rate was reduced by: liver
Description: 2.1 8-week-old male C57BL/6J (B6) mice were used, which were purchased from the National Laboratory Animal Center (Taipei, Taiwan). All animals were maintained at an animal room at a temperature of 23±2° C., and 12 hrs light/12 hrs dark cycle.
According to the “Healthy food of liver health effects assessment” (Taiwan Food and Drug Administration, Taiwan), all 8-week test mice were randomized into a control group, a high fat diet group, and test (high fat diet with different dosage of Hepasim®, Antrodin B or Antrodin C) groups. Each group contained 3-4 mice.
The control group was given 20 weeks of normal diet, and all other groups were given 20 weeks of high fat diet. […] Body weights of the mice in each group were recorded weekly. At the end of 20 weeks, all mice were sacrificed by CO2 overdose. At the time of death of the mouse, blood was collected from the heart of the mouse. To separate the serum, whole blood was centrifuged in a refrigerated centrifuge at 15,700×g at 4° C. for 5 minutes. Livers were removed from the mice, and then rinsed in ice-cold saline. Liver samples were divided for various assays and histological assessment.
Stored liver samples (0.1 g) were homogenized in 1 ml PBS, and then was centrifuged in a refrigerated centrifuge at 15,700×g at 4° C. for 5 minutes to remove pellets. The levels of aspartate aminotransferase (AST), alanine aminotransferase (ALT), total cholesterol (TC) and total triglyceride (TG) of the serum and the liver were measured by corresponding detection kits (Randox). Blood sugar in whole blood was detected by blood sugar machine (Roche). Plasma insulin was detected by Insulin mouse ELISA kit (Invitrogen). Malondialdehyde (MDA) level in liver was measured by using Lipid Peroxidation Assay Kit (Colorimetric/Fluorometric) (abcam, #ab118977). Liver samples were divided for various assays and histological assessment.
The livers were removed from the mice, and then fixed in 10% neural formalin. Liver samples were dehydrated by placing in ethanol at different concentrations (30, 50, 70, 95, 99.5%) and xylene. Finally, liver samples were embedded in paraffin section. For hematoxylin-eosin staining, the liver tissue sections were placed in xylene for 30 minutes for dewaxing, and then sequentially placed in 99.5% ethanol for 10 minutes, 90% ethanol for 5 minutes, 70% ethanol for 1 minute, 50% ethanol for 1 minute and 30% ethanol for 1 minutes for rehydration, and then soaked in distilled water for 10 minutes. To stained nuclei, the samples were soaked in hematoxylin solution for 4 minutes, and then soaked in distilled water for several minutes, followed by soaking in eosin solution for 2 minutes to stain cytoplasm, and then washed in distilled water for 10 minutes. Finally, samples were sequentially placed in 90% ethanol for 2 minutes, 99.5% ethanol for 2 minutes and xylene for 20 minutes, and then mounted by mounting medium.
All results were expressed as mean±SD. Significant differences were analyzed with two-tailed Student's t-test. P<0.05 represents the statistical difference between two groups.

CC(C)=CCOc1ccc([C@H]2C(=O)N(O)C(=O)[C@@H]2CC(C)C)cc1 (relative stereo) [Antrodin D, 3R*,4S*-1-hydroxy-3-isobutyl-4-[4-(3-methyl-2-butenyloxy)phenyl]pyrrolidine-2,5-dione]
attenuated lipid accumulation in the cells (Hep G2 cells [1]; 100 μg/ml): 18.6%
cellular lipid accumulation as compared with the control group (Hep G2 cells [1]): significantly reduced
cytotoxicity to Hep G2 cells (Hep G2 cells [2]): no cytotoxicity

CC(C)=CCOc1ccc(C2=C(CC(C)C)C(=O)N(O)C2=O)cc1 [Antrodin C, 3-isobutyl-4-[4-(3-methyl-2-butenyloxy)phenyl]-1H-pyrrol-1-ol-2,5-dione]
attenuated lipid accumulation in the cells (Hep G2 cells [1]; 10 μg/ml): 20.6%
attenuated lipid accumulation in the cells (Hep G2 cells [1]; 100 μg/ml): 24.1%
cellular lipid accumulation as compared with the control group (Hep G2 cells [1]): significantly reduced
body weight ([3]; 10 mg/Kg oral gavage every day): 40.06 ± 4.74 g
reduction of body weight increasing rate as compared with the high fat diet group ([3]; 10 mg/Kg): 4.5%
ALT ([3]; 10 mg/Kg, treating process): 22.99 ± 5.15 U/l
AST ([3]; 10 mg/Kg, treating process): 38.17 ± 5.53 U/l
TC ([3]; 10 mg/Kg, treating process): 189.36 ± 58.12 mg/dL
TG ([3]; 10 mg/Kg, treating process): 179.28 ± 15.54 mg/dL
attenuated the increased ALT as compared with the high fat diet group ([3]; 10 mg/Kg, treating process): ~12.3%
attenuated the increased AST as compared with the high fat diet group ([3]; 10 mg/Kg, treating process): ~39.35%
attenuated the increased TC as compared with the high fat diet group ([3]; 10 mg/Kg, treating process): ~66.83%
attenuated the increased TG as compared with the high fat diet group ([3]; 10 mg/Kg, treating process): ~11.57%
MDA level increasing rate in liver ([3]; 10 mg/Kg, treating process): 140.8%
Malondiadehyde in liver ([3]; 10 mg/Kg, treating process): 1.71 ± 0.59
Plasma insulin ([3]; 10 mg/Kg, treating process): 1.77 ± 0.85 ng/mL
attenuated the increased blood sugar as compared with the high fat diet group ([3]; 10 mg/Kg, treating process): about 34.78%
blood glucose ([3]; 10 mg/Kg, treating process): 351.80 ± 85.00 mg/dL
liver hypertrophy ([3]; 10 mg/Kg, treating process): significantly inhibited
liver weight ([3]; 10 mg/Kg, treating process): 1.06 ± 0.25 g
plasma insulin level increasing rate was reduced by ([3]; 10 mg/Kg, treating process): 81.8%
Plasma insulin increasing rate ([3]; 10 mg/Kg, treating process): 221.8%
body weight increasing rate ([3]; 10 mg/Kg, treating process): 30.6%
body weight ([3]; 30 mg/Kg oral gavage every day): 37.50 ± 4.80 g
reduction of body weight increasing rate as compared with the high fat diet group ([3]; 30 mg/Kg): 12.9%
ALT ([3]; 30 mg/Kg, treating process): 17.61 ± 3.90 U/l
AST ([3]; 30 mg/Kg, treating process): 32.33 ± 2.85 U/l
TC ([3]; 30 mg/Kg, treating process): 171.86 ± 40.58 mg/dL
TG ([3]; 30 mg/Kg, treating process): 170.63 ± 13.22 mg/dL
attenuated the increased ALT as compared with the high fat diet group ([3]; 30 mg/Kg, treating process): ~48.96%
attenuated the increased AST as compared with the high fat diet group ([3]; 30 mg/Kg, treating process): ~74.17%
attenuated the increased TC as compared with the high fat diet group ([3]; 30 mg/Kg, treating process): ~86.26%
attenuated the increased TG as compared with the high fat diet group ([3]; 30 mg/Kg, treating process): ~21.96%
MDA level increasing rate in liver ([3]; 30 mg/Kg, treating process): 90.1%
Malondiadehyde in liver ([3]; 30 mg/Kg, treating process): 1.35 ± 0.57
Plasma insulin ([3]; 30 mg/Kg, treating process): 1.25 ± 0.71 ng/mL
attenuated the increased blood sugar as compared with the high fat diet group ([3]; 30 mg/Kg, treating process): about 79.48%
blood glucose ([3]; 30 mg/Kg, treating process): 298.60 ± 38.93 mg/dL
liver hypertrophy ([3]; 30 mg/Kg, treating process): significantly inhibited
liver weight ([3]; 30 mg/Kg, treating process): 1.05 ± 0.24 g
plasma insulin level increasing rate was reduced by ([3]; 30 mg/Kg, treating process): 176.3%
Plasma insulin increasing rate ([3]; 30 mg/Kg, treating process): 127.3%
body weight increasing rate ([3]; 30 mg/Kg, treating process): 22.2%
lipid droplets in the liver, hematoxylin-eosin staining of liver sections ([3]; "10%" Antrodin (so in the source), treating process): significantly attenuated
lipid droplets in the liver, hematoxylin-eosin staining of liver sections ([3]; "30%" Antrodin (so in the source), treating process): significantly attenuated
MDA level increasing rate was reduced by ([3]; treated with "10%" Antrodin (so in the source), treating process): 86%
MDA level increasing rate was reduced by ([3]; treated with "30%" Antrodin (so in the source), treating process): 136.7%
liver appearance: pale color (phenomenon of fatty liver) ([3]; treating process, FIG. 4): not observed
cytotoxicity to Hep G2 cells (Hep G2 cells [2]): no cytotoxicity
